Measured values published in PubChem BioAssay AID179 (DTP/NCI, 2004).
pEC50, pIC50: −log10 of the molar value. Active and inactive are the calls of the source.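 The calls were made as follows: active = compounds giving half or more protection of infected cells from virus-caused growth loss, again on retest; inactive = the rest.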

System: CEM cells HIV-1 protection, formazan growth assay
Experiment: NCI AIDS Antiviral Assay
Details: for pIC50: measured here: growth of uninfected CEM cells
In short: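 CEM (human) cells, HIV-1 infected vs uninfected, 5-point dosing, formazan growth read-out. Retest threshold 50% protection.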

Compound	pEC50	pIC50	outcome
CC(C)N([P-]C(=O)[P-]N(C(C)C)C(C)C)C(C)C.[C-]#[O+].[C-]#[O+].[C-]#[O+].[C-]#[O+].[C-]#[O+].[C-]#[O+].[Fe].[Fe] (stereo not drawn)	< 5.45	< 5.45	
CN(C)CC/C(=N\Nc1ccc(Cl)c(Cl)c1)c1ccccc1			inactive
Cc1ccc(/C(O)=C/c2nc3ccccc3oc2=O)cc1	< 3.70	4.26	
CC(C)Cn1cnc2c(Cl)nc3ccccc3c21	< 3.70	4.38	
CC(=O)OCCOCn1c2ccccc2c2c3c(c4c5ccccc5n(COCCOC(C)=O)c4c21)C(=O)N(Cc1ccccc1)C3=O			inactive
O=C(/C=C/c1ccc(O)c(O)c1)OCCCOC(=O)/C=C/c1ccc(O)c(O)c1	< 4.00	4.86	
Cn1cc(C(=O)NCCC(=N)N)cc1NC(=O)C1=[N+](C)C=C(NC(=O)c2cccc(C(=O)NC3=CC(C(=O)Nc4cc(C(=O)NCCC(=N)N)cn4C)=[N+](C)C3)c2)C1	5.46	4.13	
CN(C(=O)Cc1ccccc1)n1cn[n+](CC(=O)OC(C)(C)C)c1	< 3.70	< 3.70	
O=C(c1ccc(Cl)cc1)c1ccc(OCCCOc2ccc(C(=O)c3ccc(Cl)cc3)cc2Cl)c(Cl)c1	< 5.32	< 5.32	
Cc1ccsc1/C=N/Nc1nncc2ccccc12	< 3.70	4.60	
O=C1NN=C2CCCCCC12 (stereo not drawn)	< 3.23	< 3.23	
O=S(=O)(O)CCN(CCO)CCO	< 3.70	< 3.70	
COc1cc(OC)c(C(=O)CC(=O)c2cc(OC)c(OC)c(OC)c2OC)cc1OC	< 3.24	3.32	
CC(=O)N1N=C(c2ccc3ccccc3c2O)CC1c1ccc(Cl)cc1Cl (stereo not drawn)	< 3.70	4.64	
O=C(Cc1ccccc1)NN1C(=O)/C(=C\c2ccc([N+](=O)[O-])cc2)SC1=Nc1ccccc1	< 4.25	< 4.25	
O=S1(=O)c2ccccc2N2C(c3ccccc3)=NOC2(c2ccccc2)CC1c1ccc(Br)cc1 (stereo not drawn)			inactive
COc1ccc2c(c1)c1c(n2CCN2CCCCC2)-c2cccc(OC)c2CC1	< 3.70	4.95	
COc1cc2c3c(c1OC)C(=O)C(=O)C1=C3N(CCC1)CC2			inactive
O=C(CCCN1CCN(c2ccccn2)CC1)c1ccc(F)cc1	< 3.88	4.14	
Cc1nc2ccc(NC(=S)Nc3ccccc3)cc2c(=O)n1-c1ccccc1	< 3.70	< 3.70	
O=C(C/C(CCC(=O)N(Cc1ccccc1)Cc1ccccc1)=N/Nc1ccc([N+](=O)[O-])cc1[N+](=O)[O-])c1ccccc1			inactive
c1ccc(COc2ccc(CC3SCCCS3)cc2)cc1	< 3.70	< 3.70	

Compound	pEC50	pIC50	outcome
CCCCOCCOC(=O)C1C(C=C(C)C)C1(C)C (stereo not drawn)	< 3.70	< 3.70	
CCC[CH2][Sn]([CH2]CCC)([O]C(=O)c1ccc(OC)c(OC)c1OC)[O][Sn]([CH2]CCC)([CH2]CCC)[O]C(=O)c1ccc(OC)c(OC)c1OC	< 5.24	6.06	
CC1=C(O)C(=O)C2C(=O)C1C(C)C2c1ccc(Cl)cc1 (stereo not drawn)	< 3.91	< 3.91	
Cc1cn(C2C=CC(=O)C(C)O2)c(=O)[nH]c1=O (stereo not drawn)	< 2.98	5.20	
O=S1(=O)C2C=CCC1C(O)CC2 (stereo not drawn)	< 3.03	< 3.03	
Cc1cccc2c1Oc1ccccc1C2NC(=O)CCN(C)C (stereo not drawn)	< 3.70	4.42	
Cc1ccccc1N=C(N)Nc1ccccc1C	< 3.70	< 3.70	
C[N+](C)(C)CCOP(=O)([O-])OCCNC(=O)c1ccc2ccccc2c1	< 3.70	< 3.70	
COC[C@@H](N=CN1CCc2cc(OC)c(OC)cc2C1)C(C)(C)C	< 3.13	< 3.13	
NC(=O)C1=Cc2cccn2-c2ccccc2S1	< 3.91	4.25	
CN=C1CN=C(OP(=O)(N2CCOCC2)N2CCOCC2)c2cc(Cl)ccc2N1	< 5.21	< 5.21	
CCCC[n+]1cc(C(N)=O)cc2ccccc21	7.16	3.66	
N#CCCN(CCN(CCC#N)C(=O)Nc1ccccc1)C(=O)Nc1ccccc1	< 3.70	< 3.70	
CNC(=S)NC1CCCCC1NC(=S)NC (stereo not drawn)	< 3.16	< 3.16	
Cc1cc(=O)c2ccc3c(ccc4c(=O)cc(C)[nH]c43)c2[nH]1	< 3.70	4.94	
O=[N+]([O-])C(C(Cl)=C(Cl)Cl)=C(N1CCCCC1)N1CCCCC1	< 3.70	3.73	
CC(C)C1N2CCCCC2[C@@H]2c3[nH]c4ccccc4c3CCN12 (stereo partly drawn)	< 4.09	< 4.09	
CC1(C)CC2(S(=O)(=O)c3ccccc3)ON1CC2S(=O)(=O)c1ccccc1 (stereo not drawn)			inactive
O=C1C(Cl)=C(Cl)C(=O)N1C1C2CC3CC(C2)CC1C3 (stereo not drawn)			inactive
CC(C)c1ccc(O)c(=O)cc1			inactive
Cc1cc(OP2(=O)NCc3ncccc3O2)ccc1Cl (stereo not drawn)	< 3.70	< 3.70	
CN1C(=O)C2(Cc3cn(C45CC67SSC(CO)(C(=O)N6C4Nc4ccccc45)N(C)C7=O)c4ccccc34)SSC1(CO)C(=O)N2C (stereo not drawn)	< 6.70	8.18	

Compound	pEC50	pIC50	outcome
O=C(/C=C/c1ccccc1)Oc1ccc(C(=O)/C=C/c2ccc(Cl)cc2)cc1	< 4.00	4.35	
CCOC(=O)/C(=C\n1c(=S)[nH]c2ccccc21)C(=O)c1ccccc1	< 3.70	< 3.70	
O=C1Oc2cc3c(c4cccc1c24)OCN(c1ccc(Cl)cc1)C3	< 5.09	< 5.09	
COc1ccc(-c2c(C(C)=O)c(-c3ccccc3)n(C3OC(CO)C(O)C(O)C3O)c(=S)c2C#N)cc1 (stereo not drawn)	< 3.70	< 3.70	
COc1ccccc1NC(=O)C(CC(C(=O)Nc1ccccc1OC)/C(C)=N/Nc1ccc([N+](=O)[O-])cc1[N+](=O)[O-])/C(C)=N/Nc1ccc([N+](=O)[O-])cc1[N+](=O)[O-] (stereo not drawn)	< 5.04	< 5.04	
Cc1noc(C)c1-c1onc2ccc(Cl)cc12	< 4.54	< 4.54	
CCOC(=O)/C(Br)=C/SCCC(=O)O	< 3.05	3.76	
CCOC(=O)COc1ccc(C[C@H](NC(=O)O[C@H]2CCOC2)[C@H](O)CN(CC(C)C)S(=O)(=O)c2ccc(N)cc2)cc1	7.23	4.19	
COc1c(C)c(C/C=C(\C)CC/C=C(\C)CCC=C(C)C)c(OC)c(OC)c1OC	< 3.70	< 3.70	
CNC(=O)C(C)NC(=O)C(Cc1ccccc1)NC(=O)c1ccccc1 (stereo not drawn)	< 3.70	< 3.70	
Cc1cc(Cl)c(=O)n(-c2ccccc2)n1	< 3.79	< 3.79	
CC(C)CC(NC(=O)C(CCI)Cc1ccccc1)C(=O)Nc1ccccc1 (stereo not drawn)	< 3.70	4.49	
COc1cnn(-c2ccccc2)c(=O)c1SCc1ccc(Cl)cc1	< 4.28	4.51	
Nc1ccn(C2CCC(CO)O2)c(=O)n1 (stereo not drawn)	5.33	4.87	
CCOC(=O)C1C(c2ccc(F)cc2)C(C(=O)OCC)C(O)(C(F)(F)F)OC1(O)C(F)(F)F (stereo not drawn)			inactive
CC1(C)OC[C@@H]([C@H](O)C2C=CC(=O)S2)O1 (stereo partly drawn)			inactive
CN1C/C(=C\c2cccs2)C(=O)/C(=C/c2cccs2)C1	< 3.70	4.85	
C[N+](C)([O-])CCNC(=O)c1cccc2cc3ccccc3nc12			inactive
O=C1CCC2CCc3cccc4oc1c2c34 (stereo not drawn)			inactive
O=C(c1ccc(Cl)cc1)N(C(=S)N1CCN(c2ccccn2)CC1)c1ccccc1	< 4.51	< 4.51	
C(=N\Nc1ccccn1)/c1ccccn1.C(=N\Nc1ccccn1)/c1ccccn1.[Cl-].[Fe+3]	< 3.70	3.93	
CC1(C)CC(=O)C(/C(=N/NC(=S)NN)C(=O)Nc2nc3ccc([N+](=O)[O-])cc3s2)C(=O)C1	< 4.27	< 4.27	

Compound	pEC50	pIC50	outcome
O=C1O/C(=C(\Br)c2cccc3ccccc23)c2ccccc21	< 5.11	< 5.11	
O=c1[nH]c2ccccc2c(O)c1-[n+]1ccccc1	< 3.70	< 3.70	
CC(=O)OC1C2C(=C(C)C(=O)O[C@@H]2c2ccoc2)[C@@]2(C)C3CCC(C)(C(=O)O3)C12 (stereo partly drawn)	3.79	< 3.70	
Nc1ccc([C@H]2C(=O)N[C@H]3CCC[C@H]32)cc1	< 3.38	< 3.38	
CC1(C)CNCC2(C)OCCCCCCCCCCOC3(C)CNCC(C)(C)[N-]C(=O)C(C)(CNCC(C)(C)[N-]C3=O)OCCCCCCCCCCOC(C)(CNCC(C)(C)[N-]C2=O)C(=O)[N-]1.[Ni+2].[Ni+2]	< 3.70		
COc1ccc(N=Nc2cc(OC)c(N=Nc3c(O)c4ccccc4[nH]c3=O)cc2OC)cc1	< 4.00	4.81	
NC1(CCCCCCCCCCC(=O)O)CNCCNCCNCCNC1	< 3.36	5.46	
N#C/C(C(=S)NCc1ccccc1)=C1/Nc2ccccc2O1	< 3.70	4.48	
CCC(=O)OC1CC2=CC(=O)CCC2(C)C2CCC3(C)C(OC(=O)CC)CCC3C12 (stereo not drawn)	< 3.70	< 3.70	
CCCCCNC(=O)Sc1ccccc1C(=O)N[C@H](C)C(N)=O	6.00	3.91	
COc1cc(NS(C)(=O)=O)ccc1NCc1c2ccccc2nc2ccccc12			inactive
NC(=O)N/N=C(\Cc1cc(=O)oc2cc(O)ccc12)C(=O)Nc1ccccc1C(N)=O	< 4.49	< 4.49	
CNc1nc(N(C)C)nc(N(C)C)n1	< 3.27	3.39	
CCc1nc2c(O)ccc(O)c2nc1C	< 3.75	4.98	
CN(C)c1ccc(/C=C(\C#N)c2nc(-c3cc4ccccc4oc3=O)cs2)cc1	5.01	< 4.00	
COCCCCCCCCCCC(=O)O	< 3.70	< 3.70	
NC1(C(=O)O)CCCCC1c1ccccc1 (stereo not drawn)	< 4.37	< 4.37	
O=C1CC(=O)NC(=NNS(=O)(=O)c2ccc(Cl)cc2)N1	< 3.70	< 3.70	
CCC1C(=O)OCc2c1cc1n(c2=O)CCC12OCCO2 (stereo not drawn)	< 3.07	< 3.07	
CC1N(N2C(=O)CS(=O)(=O)C2C)C(=O)CS1(=O)=O (stereo not drawn)	< 3.70	< 3.70	
